Measurements as given in the NIST ThermoML archive (doi:10.1021/acs.jced.8b00517).
Numbers after ± are expanded uncertainties.

How the values were obtained:
[1] = refractive index (Na D-line) (dimensionless); details: 293.15 K; 101.33 kPa; Liquid; Standard Abbe refractometry
[2] = Liquid; for mass density: 293.15 K, 101.33 kPa, Vibrating tube method; for vapor or sublimation pressure: Ebulliometric method (Recirculating still)
[3] = Boiling temperature at pressure P; details: Liquid, Ebulliometric method (Recirculating still)

Compound	refractive index [1]	mass density [2]	Boiling temperature at pressure P ([3]; 19.9 kPa)	Boiling temperature at pressure P ([3]; 34.33 kPa)	Boiling temperature at pressure P ([3]; 39.89 kPa)	Boiling temperature at pressure P ([3]; 49.89 kPa)	Boiling temperature at pressure P ([3]; 58.58 kPa)	Boiling temperature at pressure P ([3]; 69.3 kPa)	Boiling temperature at pressure P ([3]; 79.88 kPa)	Boiling temperature at pressure P ([3]; 89.88 kPa)	Boiling temperature at pressure P ([3]; 98.88 kPa)	vapor or sublimation pressure ([2]; 343.15 K)	vapor or sublimation pressure ([2]; 358.15 K)	vapor or sublimation pressure ([2]; 363.15 K)
CC(C)CO [2-methyl-1-propanol]	1.3959 ± 0.0009	801.49 ± 2 kg/m3	–	–	–	–	–	–	–	–	–	–	–	–
CCCC(C)=O [pentan-2-one]	1.3906 ± 0.0009	805.86 ± 2 kg/m3	56.44 ± 0.22 °C	70.32 ± 0.22 °C	74.40 ± 0.19 °C	80.62 ± 0.18 °C	85.30 ± 0.17 °C	90.4 ± 0.17 °C	94.76 ± 0.17 °C	98.53 ± 0.16 °C	101.59 ± 0.16 °C	34.4 ± 0.32 kPa	58.64 ± 0.39 kPa	69.36 ± 0.46 kPa
